In patent US8389523B2, “Substituted quinoxaline and an agrochemical composition thereof” (Kumiai Chemical Industry Co., Ltd., priority 2007, dated 2013):

Tests used:
Type in all cases: in vivo
Set-up in all cases: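 grade 0 to 5 of growth suppression where 5 is 90% or more and 0 below 10%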
[1] = test system: Echinochloa oryzicola Vasing; assay: Herbicidal effects in paddy field soil treatment (Test Example 1); conditions: paddy field soil treatment; 1000 g of the active ingredient per hectare; wettable powder added dropwise on water surface; 21st day after treatment
Summary of the method: (§1)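 Sow seeds in puddled, leveled paddy soil; waterlog to 3 cm depth. On the following day apply water-diluted wettable powder onto the water surface (1000 g a.i./ha). Grow in greenhouse and assess herbicidal effect at day 21.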

[2] = test system: Monochoria vaginalis (Burm. f.) Presl var. plantaginea (Roxb.) Solms-Laub.; assay: as above; conditions: paddy field soil treatment; 1000 g of the active ingredient per hectare; wettable powder added dropwise on water surface; 21st day after treatment
Summary of the method: as §1

[3] = test system: Scirpus juncoides Roxb. var. ohwianus. T. Koyama; assay: as above; conditions: paddy field soil treatment; 1000 g of the active ingredient per hectare; wettable powder added dropwise on water surface; 21st day after treatment
Summary of the method: as §1

[4] = test system: Abutilon theophrasti medicus; assay: Herbicidal effects in upland field soil treatment (Test Example 2); conditions: 1000 g active ingredient per hectare, 21st day after treatment, criteria of Table 138
Summary of the method: (§2)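 Upland soil, seeds sown and covered → diluted WP sprayed uniformly onto soil surface (1000 L/ha; 1000 g a.i./ha) → greenhouse → effect scored day 21.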

Amaranthus viridis L. [5] = assay: as above; conditions: 1000 g active ingredient per hectare, 21st day after treatment, criteria of Table 138
Summary of the method: as §2

[6] = test system: Abutilon theophrasti medicus; assay: Herbicidal effects in upland field foliar treatment (Test Example 3); conditions: 1000 g active ingredient per hectare, 14th day after treatment, criteria of Table 138
Summary of the method: (§3)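 Seeds sown in upland soil, grown 2 weeks in greenhouse; whole-plant overhead spray of diluted wettable powder at 1000 g a.i./ha (1000 L/ha); kept in greenhouse; effects graded by criteria at 14 d.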

Amaranthus viridis L. [7] = assay: as above; conditions: 1000 g active ingredient per hectare, 14th day after treatment, criteria of Table 138
Summary of the method: as §3

[8] = test system: Echinochloa crus-galli (L.) P. Beauv. var. crus-galli; assay: as above; conditions: 1000 g active ingredient per hectare, 14th day after treatment, criteria of Table 138
Summary of the method: as §3

Structure (SMILES)	Herbicidal effects index, Echinochloa oryzicola Vasing [1]	Herbicidal effects index, Monochoria vaginalis (Burm. f.) Presl var. plantaginea (Roxb.) Solms-Laub. [2]	Herbicidal effects index, Scirpus juncoides Roxb. var. ohwianus. T. Koyama [3]	herbicidal effect (index) on Abutilon theophrasti medicus [4]	herbicidal effect (index) on Amaranthus viridis L. (Amaranthus viridis L. [5])	herbicidal effect (index) on Abutilon theophrasti medicus [6]	herbicidal effect (index) on Amaranthus viridis L. (Amaranthus viridis L. [7])	herbicidal effect (index) on Echinochloa crus-galli (L.) P. Beauv. var. crus-galli [8]
COCCOCn1c(=O)c(C(=O)C2=C(O)CCCC2=O)nc2ccccc21 [I-58]	5	5	5	5	5	5	5	5
O=C1CCCC(O)=C1C(=O)c1nc2ccccc2n(COCC(F)(F)F)c1=O [I-59]	5	5	5	5	5	5	5	5
O=C(C1=C(O)C2CCC(C2)C1=O)c1nc2ccccc2n(COCC(F)(F)F)c1=O (stereo not drawn) [I-62]	5	5	5	5	5	5	5	5
O=C1CCCC(O)=C1C(=O)c1nc2ccccc2n(COCC2CCCO2)c1=O (stereo not drawn) [I-65]	4	5	5	5	5	5	5	4
N#CCCOCn1c(=O)c(C(=O)C2=C(O)CCCC2=O)nc2ccccc21 [I-68]	4	5	5	5	5	5	5	4
CSCn1c(=O)c(C(=O)C2=C(O)CCCC2=O)nc2ccccc21 [I-70]	5	5	5	5	5	5	5	5
O=C1CCCC(O)=C1C(=O)c1nc2ccccc2n(C2=NOCC2)c1=O [I-131]	5	5	5	5	5	5	5	5
O=C1CCCC(O)=C1C(=O)c1nc2ccccc2n(-c2ccsc2)c1=O [I-139]	5	5	5	5	5	5	5	4
O=C1CCCC(O)=C1C(=O)c1nc2ccccc2n(-c2ccon2)c1=O [I-144]	5	5	5	5	5	5	5	5
Cc1cc(-n2c(=O)c(C(=O)C3=C(O)CCCC3=O)nc3ccccc32)no1 [I-145]	5	5	5	5	5	5	5	5
Cc1cc(-n2c(=O)c(C(=O)C3=C(O)C4CCC(C4)C3=O)nc3ccccc32)no1 (stereo not drawn) [I-148]	5	5	5	5	5	5	5	5
Cc1cc(-n2c(=O)c(C(=O)C3=C(O)C(C)(C)C(=O)C(C)(C)C3=O)nc3ccccc32)no1 [I-149]	5	5	4	5	5	5	5	5
Cc1cc(-n2c(=O)c(C(=O)C3=C(O)CCCC3=O)nc3ccccc32)sn1 [I-156]	5	5	5	5	5	5	5	5
Cn1nc(C(F)(F)F)cc1-n1c(=O)c(C(=O)C2=C(O)CCCC2=O)nc2ccccc21 [I-158]	5	5	5	5	5	5	5	5
O=C1CCCC(O)=C1C(=O)c1nc2ccccc2n(-c2nccs2)c1=O [I-159]	5	5	5	5	5	5	5	4
Cc1csc(-n2c(=O)c(C(=O)C3=C(O)CCCC3=O)nc3ccccc32)n1 [I-160]	5	5	5	5	5	5	5	5
Cc1nc(-n2c(=O)c(C(=O)C3=C(O)CCCC3=O)nc3ccccc32)no1 [I-163]	4	5	5	5	5	5	5	4
O=C1CCCC(O)=C1C(=O)c1nc2ccccc2n(-c2ccccn2)c1=O [I-171]	5	5	5	5	5	5	5	5
